US8969026B2, “Polymeric reverse micelles as selective extraction agents and related methods of MALDI-MS analysis” (University of Massachusetts, priority 2007, dated 2015)
No end group written: not given here.

Assays:
[1] = Control extraction of pI markers into toluene alone (no polymer); assay type: physicochemical; conditions: no reverse micelles / absence of polymer; pH independent
Method: Previously, it was shown for a series of peptides that charge complementarity exerts an important influence on the extraction process with these amphiphilic homopolymers. (See, M. Y. Combariza, E. N. Savariar, D. R. Vutukuri, S. Thayumanavan and R. W. Vachet, Anal. Chem. 2007, 79, 7124-7130.) Here, the importance of two other factors—hydrophobicity and aqueous solution pH—are assessed. Hydrophobicity might affect the extraction efficiency to some degree due to the toluene phase that surrounds the reverse micelles and the hydrocarbon functionality on the periphery of the reverse micelles. In order to investigate this effect, extractions of pI markers with different hydrophobicities were performed. As an example of the effect of hydrophobicity, the results from the extraction of two pI markers (4 and 7) at an aqueous phase pH of 6.0 are shown in FIG. 4. […]
(§1) A two-phase liquid-liquid extraction protocol that was previously developed was employed. […] The top (organic) layer was removed and the bottom (aqueous) layer was analyzed by fluorescence spectroscopy. […]
The amount of pI marker left in the bottom (aqueous) layer after extraction was determined on a Photon Technology International fluorometer (Ontario, Canada). Analysis of the organic phase was difficult because the fluorescence spectrum of the polymer in this phase was very broad, and in many cases overlapped with the signal from the pI markers. The excitation and emission wavelengths for each pI marker were chosen to maximize the fluorescence signal. […] For most of the pI markers, the fluorescence intensity was very low under more acidic conditions, making it difficult to collect data at these lower pHs. The fluorescence intensity of the aqueous phase after a given extraction was measured, and in each case the fluorescence intensity was used to determine the concentration of the pI marker remaining in the aqueous phase after the extraction. […]

[2] = Liquid-liquid extraction of pI markers by reverse micelles of homopolymer 3 in toluene, fluorescence of the aqueous phase; assay type: physicochemical; conditions: for extraction efficiency: aqueous pH 6.0, reverse micelles present in the toluene phase
Source text: The polymeric reverse micelle-like nanoassemblies have carboxylate groups in their interiors; therefore, positively charged pI markers are expected to be extracted. Upon extraction, the concentrations of the pI markers left in the aqueous phase were quantitatively determined by fluorescence spectroscopy. Analysis of the organic phase was difficult because the fluorescence spectrum of the polymer is very broad in this phase, and in many cases overlaps with the signal from the pI markers. As an example of the data from the aqueous solution, the fluorescence spectra of pI marker 2, before (solid line) and after extraction (dashed line), are shown in FIG. 3. […] The concentration of the pI marker remaining in the aqueous phase can be quantified, and in this example, it is determined that 46% of pI marker 2 remains, which means that 54% of it is extracted into the organic phase when the aqueous solution pH is 1.9. It is not surprising that most of this compound is extracted under these conditions. This marker hag a pI value of 3.0, and at an aqueous solution pH of 1.9, most of this compound is positively charged and therefore interacts favorably with the negatively-charged interior of the polymeric reverse micelles.
as §1
The amount of pI marker left in the bottom (aqueous) layer after extraction was determined on a Photon Technology International fluorometer (Ontario, Canada). Analysis of the organic phase was difficult because the fluorescence spectrum of the polymer in this phase was very broad, and in many cases overlapped with the signal from the pI markers. The excitation and emission wavelengths for each pI marker were chosen to maximize the fluorescence signal. […] For most of the pI markers, the fluorescence intensity was very low under more acidic conditions, making it difficult to collect data at these lower pHs. The fluorescence intensity of the aqueous phase after a given extraction was measured, and in each case the fluorescence intensity was used to determine the concentration of the pI marker remaining in the aqueous phase after the extraction. The amount of pI marker that was extracted by the reverse micelles was then calculated by subtracting the remaining aqueous phase concentration from the initial concentration (1×10^−6 M). The fluorescence measurements were repeated at least 3 times for each extracted sample and the average values are reported.

[3] = fluorescent pI markers, cited from earlier work
[4] = pH-dependent biphasic extraction of a peptide mixture with inverse micelles of polymer 1 in toluene, MALDI-MS ion abundance ratio; assay type: physicochemical; conditions: extraction at pH 7.1 followed by extraction at pH 5.5, organic phase
[5] = as above; assay type: physicochemical; conditions: polymer 1 inverse micelles in toluene, K = Iorg/Iaq, [M+H]+ signal, [M+K]+ for spinorphin and β-amyloid, at least 4 replicates; for Ion abundance ratio (K ± sM) pH 4.0: aqueous pH 4.0; for Ion abundance ratio (K ± sM) pH 7.1: aqueous pH 7.1; for Ion abundance ratio (K ± sM) pH 9.0: aqueous pH 9.0
Source text: The net charge within the inverse micelle of 1 is negative, affording a selective extraction of positively-charged peptides. In a typical experiment, a toluene solution containing 1 was mixed with an aqueous solution containing a mixture of peptides. After vortexing this mixture, the organic layer was separated and analyzed using MALDI-MS. […] Because the aqueous solution was buffered at a pH of 7.1, peptides with pI values above 7.1 were expected to be sequestered into the interior of the inverse micelles, while peptides with pI values below 7.1 would be mostly excluded based on Coulombic repulsion.
The ion abundance ratio is related to the extraction capacity of the polymer, and can be defined as the ratio of the MALDI ion abundance of the peptide in the organic phase that contains the inverse micelles (Iorg) to the ion abundance of the peptide remaining in the aqueous phase (Iaq) (K=Iorg/Iaq). These experiments were performed with the hypothesis that the extraction would be based on electrostatic interaction between the polymer and the peptide. To test this premise further, two control experiments were carried out. […] Therefore, a two-phase extraction experiment was done in the absence of homopolymer 1, and no peptide extraction into the organic phase was observed. Second, peptide extractions using a polymer without the negatively-charged functionality were performed. Polymer 2 contains charge-neutral pentaethyleneglycol functionalities instead of the carboxylic acid moieties. […] These two results are consistent with the hypothesis that the extraction is based on electrostatics.
Without limitation to any one theory or mode of operation, the pH of the overall aqueous solution is also likely to dictate the pH of the hydrated interiors of the inverse micelle where the binding takes place. Accordingly, extractions at three different pHs: 4.0, 7.1, and 9.0 were carried out; the results of these experiments are listed in Table 1. […] The results from experiments at pH 7.1 and 9.0 further support this idea. It should be noted that when the experiment is carried out at pH 9.0, the peptide with a pI of 7.7 is extracted to some extent. Such a result could be attributed to errors associated with aqueous solution pH measuring or to errors in the peptide pI calculation. Nonetheless, the tunability is still significant and therefore is a very useful result.
A Bruker Reflex III time-of-flight mass spectrometer was used to perform MALDI-MS analysis. The mass spectrometer is equipped with a 337-nm nitrogen laser, a 1.0 m flight tube, and a stainless steel sample target. All mass spectra were acquired in reflectron mode using a voltage of 16 kV. All reported spectra represent an average of 70 shots acquired at 30% laser power. The accelerating voltage was set to 20 kV.
A typical biphasic extraction procedure involves mixing 200 μL of a toluene solution of homopolymer 1 or 2 (1×10^−4 M) with 1 mL of an aqueous solution of peptide(s) that was buffered to pH ˜7.0 with 50 mM Tris/TrisHCl. The mixture is vortexed for 10 to 120 minutes and centrifuged at 12000 rpm for 30-40 minutes to break the resulting emulsion and separate the organic and aqueous layers. The top (organic) layer is then recovered and dried to obtain a solid residue. The residue is redissolved into 10 μL of THF and sonicated for 10 seconds to promote solubilization. Finally, 20 μL of an α-CHCA matrix solution (0.16 Min 60:40:0.3% THF:H2O:TFA) are added to the sample for a final volume of 30 μL. For MALDI-MS analysis the samples are applied to the target using the dried-droplet method, where 1 μL of the sample/matrix mixture is spotted on a stainless-steel target, and the solvent is evaporated at room temperature. The residual aqueous phase (˜1 mL) after extraction is also examined by MALDI-MS. […]

[6] = Extraction of a peptide mixture by positively charged imidazole polymer 4 at pH 4.5, MALDI-MS; assay type: physicochemical; conditions: each peptide 1.0×10^−6 M
Source text: Extraction of peptide mixture by positively charged polymer. Illustrating other embodiments of this invention, positively-charged polymers extract peptides with pI values below the aqueous solution pH. Without limitation, polymers with moieties comprising a positively charged nitrogenous group can be used with good effect. Representative of such embodiments, an imidazole-substituted polymer, 4, shown below, can be prepared using straight forward synthetic techniques of the sort described herein, and/or as are well-known to those skilled in the art.
At pH 4.5, kinetensin and angiotensin are positively-charged because the pH is below their pI values. […] FIG. 12C provides a mass spectrum of the aqueous phase after extraction at pH 4.5. The positively-charged peptides remain in the aqueous phase after extraction.

[7] = aqueous solution pH 1.9, polymer 3 reverse micelles in toluene

Compound	percentage extracted into toluene alone [1]	extraction efficiency [2]	pI [3]	extraction in the second step of the sequential extraction [4]	Ion abundance ratio (K ± sM) pH 4.0 [5]	Ion abundance ratio (K ± sM) pH 7.1 [5]	Ion abundance ratio (K ± sM) pH 9.0 [5]	further results
EDVGSNKGAIIGLM (listed as Homo sapiens) [β-Amyloid, human peptide purchased from American Peptide Company]	–	–	–	a small amount of β-amyloid was extracted	17 ± 6	0.4 ± 0.2	0.10 ± 0.07	–
LVVYPWT [Spinorphin, LVVYPWT]	–	–	–	extracted into the organic layer	36 ± 12	2.0 ± 1.0	1.0 ± 0.5	–
SSEVAGEGDGDSMGHEDLY (listed as Homo sapiens) [Preproenkephalin, human peptide purchased from American Peptide Company]	–	–	–	–	2.2 ± 0.9	0.4 ± 0.1	0.12 ± 0.04	phase distribution after extraction [6]: a small percentage of the preproenkephalin is believed to remain in the aqueous phase

Now from value to compound, other results behind:

percentage extracted into toluene alone [1]	extraction efficiency [2]	Compound	pI [3]	extraction in the second step of the sequential extraction [4]	Ion abundance ratio (K ± sM) pH 4.0 [5]	Ion abundance ratio (K ± sM) pH 7.1 [5]	Ion abundance ratio (K ± sM) pH 9.0 [5]	further results
about 6.6±0.6%	–	O=C(O)c1cc(Cl)ccc1NCCO [pI marker 2]	3.0	–	–	–	–	percentage extracted into the organic phase [2, 7]: 54%; percentage of pI marker remaining in the aqueous phase after extraction [2, 7]: 46%
8.4±0.6%	21.5±0.4%	O=C(CNc1ccccc1C(=O)O)NCCN1CCOCC1 [pI marker 4]	5.1	–	–	–	–	–
5.9±0.3%	70±1.6%	CN(C)CCCNC(=O)c1cc(Cl)ccc1O [pI marker 7]	8.1	–	–	–	–	Pka1 [3]: 6.80; Pka ([3]; second pKa column): 9.30
